Measurements from patent US9738649B2 (priority 2006, dated 2017).
Counter-ions that a name gives are not always drawn.

These compounds were tested against rat TRPV1 (Rattus norvegicus (Rat), UniProt O35433). Settings: read-out: Rat IC50.
Chain of rat TRPV1 (O35433 whole entry): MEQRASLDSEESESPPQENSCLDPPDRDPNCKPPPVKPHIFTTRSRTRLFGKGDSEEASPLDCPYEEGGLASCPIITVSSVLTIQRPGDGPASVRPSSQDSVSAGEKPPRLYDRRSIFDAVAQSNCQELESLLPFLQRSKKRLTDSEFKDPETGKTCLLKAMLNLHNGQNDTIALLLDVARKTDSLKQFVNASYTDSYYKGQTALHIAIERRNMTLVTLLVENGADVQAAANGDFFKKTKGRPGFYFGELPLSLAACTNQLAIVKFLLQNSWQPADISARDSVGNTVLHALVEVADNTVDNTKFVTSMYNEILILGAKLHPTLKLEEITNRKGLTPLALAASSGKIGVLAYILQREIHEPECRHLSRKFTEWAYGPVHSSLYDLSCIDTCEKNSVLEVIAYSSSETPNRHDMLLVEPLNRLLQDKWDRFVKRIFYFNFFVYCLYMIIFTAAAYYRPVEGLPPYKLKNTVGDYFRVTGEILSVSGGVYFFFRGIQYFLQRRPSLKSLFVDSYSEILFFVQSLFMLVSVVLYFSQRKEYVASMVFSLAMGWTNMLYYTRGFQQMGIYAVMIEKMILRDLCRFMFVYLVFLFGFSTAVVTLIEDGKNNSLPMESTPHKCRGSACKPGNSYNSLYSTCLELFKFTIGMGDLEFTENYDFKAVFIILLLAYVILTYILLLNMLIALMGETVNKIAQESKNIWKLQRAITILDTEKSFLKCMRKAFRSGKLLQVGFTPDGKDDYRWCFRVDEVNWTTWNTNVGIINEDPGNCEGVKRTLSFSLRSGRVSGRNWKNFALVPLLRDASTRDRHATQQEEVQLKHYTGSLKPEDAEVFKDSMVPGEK
Description: Biological Testing: Functional Assay: Block of Capsaicin-Induced Ca^2+ Influx A. Human Assay
Cells were passaged frequently, every 3-5 days, to avoid overgrowth, depletion of essential medium components, or acidic medium exposure. Cells were passaged using a brief wash in 0.05% trypsin with 1 mM EDTA, followed by dissociation in divalent-free phosphate-buffered saline (Hyclone #SH30028.02). […] The assay buffer was composed of 130 mM NaCl, 2 mM KCl, 2 mM MgCl2, 10 mM HEPES, 5 mM glucose, and either 2 mM or 20 μM CaCl2. On the day of the experiment, the culture medium was replaced with 2 mM calcium assay buffer using an automated plate washer (ELx405; Biotek, VT). […] After loading the cells, the dye solution was replaced with 50 μL/well of 20 μM calcium assay buffer using the ELx405 plate washer. Test compounds (50 μL/well) were added to the plate and incubated for 30 min. […] The IC50 values were determined. […] The contents of the wells were mixed 3 times (40 μL mix volume) immediately after the additions were made. Concentration dependence of block was determined by exposing each well of cells in duplicate rows of a 96 well plate to a serial dilution of test compound. The concentration series usually started at 10 μM with a three-fold serial decrement in concentration. The magnitude of the capsaicin response was determined by measuring the change in fluo3 fluorescence before and 100 seconds after the addition of the agonist. Data were analyzed using a non-linear regression program (Origin; OriginLab, MA). IC50 values shown are the average (mean) of the results obtained.
The assay was performed as described above, using HEK293 cells transfected with rat TRPV1 (rTRPV1/HEK293). […] IC50 values shown are the average (mean) of the results obtained.

| SMILES | IC50 [nM] |
| --- | --- |
| O=C(O)C1CCN(c2nc3c(c(Nc4ccc(C(F)(F)F)cc4)n2)CCN(c2ncccc2C(F)(F)F)CC3)CC1 [Example 57B, 1-[4-(4-Trifluoromethyl-phenylamino)-7-(3-trifluoromethyl-pyridin-2-yl)-6,7,8,9-tetrahydro-5H-pyrimido[4,5-d]azepin-2-yl]-piperidine-4-carboxylic acid trifluoroacetic acid salt] | 5500 |
| FC(F)(F)c1ccc(Nc2nc(NCCN3CCCCC3)nc3c2CCN(c2ncccc2C(F)(F)F)CC3)cc1 [Example 58B, N^2-(2-Piperidin-1-yl-ethyl)-N^4-(4-trifluoromethyl-phenyl)-7-(3-trifluoro-methyl-pyridin-2-yl)-6,7,8,9-tetrahydro-5H-pyrimido[4,5-d]azepine-2,4-diamine trifluoroacetic acid salt] | 1500 |
| CN(C)c1nc2c(c(NCc3ccc(Cl)c(Cl)c3)n1)CCN(c1ncccc1C(F)(F)F)CC2 [Example 73B, N^4-(3,4-Dichloro-benzyl)-N^2,N^2-dimethyl-7-(3-trifluoromethyl-pyridin-2-yl)-6,7,8,9-tetrahydro-5H-pyrimido[4,5-d]azepine-2,4-diamine trifluoroacetic acid salt] | 6700 |
| FC(F)(F)c1ccc(Nc2nc(NC3CCOCC3)nc3c2CCN(c2ncccc2C(F)(F)F)CC3)cc1 [Example 61B, N^2-(Tetrahydro-pyran-4-yl)-N^4-(4-trifluoromethyl-phenyl)-7-(3-trifluoro-methyl-pyridin-2-yl)-6,7,8,9-tetrahydro-5H-pyrimido[4,5-d]azepine-2,4-diamine trifluoroacetic acid salt] | 230 |
| CN(C)c1nc2c(c(Nc3ccc(C(F)(F)F)nc3)n1)CCN(c1ncccc1C(F)(F)F)CC2 [Example 43B, N^2,N^2-Dimethyl-N^4-(6-trifluoromethyl-pyridin-3-yl)-7-(3-trifluoro-methyl-pyridin-2-yl)-6,7,8,9-tetrahydro-5H-pyrimido[4,5-d]azepine-2,4-diamine trifluoroacetic acid salt] | 390 |
